“Also recorded” adds a separate entry of the source.
Tested on: A1847 parental and CARM1 knockout cells
Assay: Epigenetic targeting small molecule set screen (14-day colony formation)
Type: cell-based, human
Settings: 14 days, normalized to vehicle
Method: FIG. 26 illustrates that CARM1-expressing cells are selectively sensitized to EZH2 inhibitors. Equal number of parental control or CARM1 knockout […] cells were plated and treated with each of the 23 individual epigenetic inhibitors for 14 days. The media with the inhibitors was refreshed every 3 days. Cell growth was quantified as integrated density using NIH Image J software. Quantification of the average integrated density graphed as a scatter plot. The X-axis indicates the relative growth of treated CARM1 high parental […] cells compared with DMSO vehicle controls. Y-axis indicates the relative growth of treated CARM1 knockout […] cells compared with DMSO vehicle controls. n=4; and error bars represents SEM. FIG. 27 illustrates a table of EZH2 inhibitors that are selective against CARM1 expression. CARM1-high parental controls and CARM1 knockout […] cells were treated with the indicated concentration of the small molecules in a 14-day colony formation assay. Integrated density for each well was calculated using NIH Image J software. The relative growth of the indicated cells was determined by normalizing to the vehicle control treated cells. n=4 and p-value was calculated using a two-tailed t-test. […] parental and CARM1 knockout cells were plated in 24-well plates and treated with 24 epigenetic compounds. Cell medium was changed every three days with appropriate drug doses for 14 days or until control wells became confluent. Colonies were washed twice with PBS and fixed with 10% methanol and 10% acetic acid in distilled water. Fixed colonies were stained with 0.005% crystal violet. Integrated density was measured using NIH ImageJ software as a surrogate for cell growth.

Row | Compound | selective growth suppression of CARM1-expressing vs CARM1 KO cells
1 | CC(=O)Nc1ccc(C(=O)Nc2ccccc2N)cc1 [CI994] | equally effective in suppressing the growth of both CARM-expressing and KO cells; also recorded: showed no difference between parental and CARM1 knockout cells
2 | CCCc1cc(C)[nH]c(=O)c1CNC(=O)c1cc(-c2ccc(N3CCN(C(C)C)CC3)nc2)cc2c1cnn2C(C)C [UNC1999, 1-isopropyl-6-(6-(4-isopropylpiperazin-1-yl)pyridin-3-yl)-N-((6-methyl-2-oxo-4-propyl-1,2-dihydropyridin-3-yl)methyl)-1H-indazole-4-carboxamide] | showed selectivity against CARM1-expressing cells; also recorded: selectively sensitive

From patent US12036222B2, “Methods of treating cancers overexpressing CARM1 with EZH2 inhibitors and a PARP inhibitor” (The Wistar Institut of Anatomy and Biology, priority 2018, dated 2024)
